Reference: patent publication US9920037B2, “Diaryl isoxazoline compound” (Elanco Tiergesundheit AG, priority 2014, dated 2018)

Tests used:
[1] = system: Lepeophtheirus salmonis copepodids; assay: Activity in vitro against Lepeophtheirus salmonis at copepodid stage; assay type: cell-based; details: 0.16 ng/ml sea water; 1 hour contact, then 48 h in untreated sea water
Experimental: Sea lice copepodids were used to seed a 96-well plate containing the test substances to be evaluated for antiparasitic activity. The racemic compound of formula (I) according to the present invention and the racemic compound No. 1.48 according to WO2010/070068, page 47 were tested by serial dilution in order to determine its minimal effective dose (MED). Copepodids were left in contact with each test compound diluted in sea water for 1 hour. They were then incubated in untreated sea water for 48 h. Efficacy against sea lice was then confirmed if no copepodid moved over a period of 80 seconds.

[2] = system: Rhipicephalus sanguineus nymphs; assay: Activity in vivo against Rhipicephalus sanguineus nymphs on Mongolian gerbils (spray application); details: 1.0 mg/kg animal biomass, Mongolian gerbils (Meriones unguiculatus)
Experimental: On day 0, gerbils are treated with the respective test compound at a given dose by spray application. On day +1 (+2), the animals are infested with nymphs of R. sanguineus. Ticks are left on the animals until full repletion. Seven days after infestation nymphs dropped off fully engorged are collected and counted. Efficacy in killing is expressed as a tick number reduction in comparison with a placebo treated group, using the Abbot's formula.

[3] = system: adult R. sanguineus ticks; assay: Activity in vivo against Rhipicephalus sanguineus ticks (dog tick) on rabbits; details: spray application on ears; for threshold concentration where the efficacy drops below 90%: rabbits
Experimental: On day 0, rabbits are treated with the test compound at a given dose by spray application on their ears only. On day +1, the animals are infested on their ears with adult R. sanguineus ticks (sex ratio 1:1). Evaluation of efficacy is performed 24 h, 48 h, and 72 h after infestation by counting the numbers of dead and live ticks recovered from the animals. Efficacy is expressed as comparison with a placebo treated group using the Abbot's formula. Infestations can be repeated at weekly intervals until efficacy drops. The racemic compound of formula (I) according to the present invention and the racemic compound No. 1.48 according to WO2010/070068, page 47 were tested at different concentrations in order to determine the threshold concentration where the efficacy drops below 90%.

[4] = system: sea lice Lepeophtheirus salmonis; assay: Activity in vivo against copepodids (Lepeophtheirus salmonis) on Atlantic salmon, medicated feed; details: Atlantic salmon (Salmo salar L.), medicated feed 1 mg/kg/day for 7 consecutive days; counted 10 days after treatment end
Experimental: The study used two groups of 45 Atlantic salmon (Salmo salar L.), each, with an average weight of 400 g per fish. Fish were challenged with sea lice copepodids Lepeophtheirus salmonis) (Cohort I). When cohort I reached pre-adult stage, all fish were challenged with a second cohort of sea lice copepodids (Cohort II).
Treatment was initiated when sea lice in cohort I became pre-adult/adults and sea lice in cohort II were early chalimus stages:
One group was treated with medicated feed-pellet containing the (S)-enantiomer of the compound of formula (I) at 1 mg/kg/day, during 7 consecutive days. One group was a placebo control group. The medicated pellets were prepared by dry coating commercially available fish feed pellets with a pre-mix containing the (S)-enantiomer of the compound of formula (I) to reach a content of 0.02% (w/w) active ingredient in the fish feed.
Sea lice were counted 10 days after treatment end.

Structure (SMILES)	efficacy (no copepodid moved over 80 seconds) [1] [%]	efficacy (tick number reduction vs placebo, Abbot's formula) [2] [%]	efficacy (vs placebo, Abbot's formula) ([3]; 15 mg/m^2, rabbits) [%]	threshold concentration where the efficacy drops below 90% [3] [mg/m^2]	efficacy (vs placebo, Abbot's formula) ([3]; 3 mg/m^2, rabbits) [%]	efficacy (vs placebo, Abbot's formula) ([3]; 7.5 mg/m^2, rabbits) [%]	efficacy (sea lice count) [4] [%]
C#CCNC(=O)CNC(=O)c1sc(C2=NOC(c3cc(Cl)cc(Cl)c3)(C(F)(F)F)C2)cc1C (racemic) [racemic compound No. 1.48, reference compound]	0	77	82	15	–	–	–
C#CCNC(=O)CNC(=O)c1sc(C2=NOC(c3cc(Cl)c(Cl)c(Cl)c3)(C(F)(F)F)C2)cc1C (racemic) [racemic compound of formula (I)]	100	87	–	3	73	93	–
C#CCNC(=O)CNC(=O)c1sc(C2=NO[C@@](c3cc(Cl)c(Cl)c(Cl)c3)(C(F)(F)F)C2)cc1C [(S)-enantiomer of the compound of formula (I)]	–	–	–	–	–	–	100
